Data reported in US20230263944A1, “DUAL FUNCTION SURFACE FOR CELL CAPTURE AND SPREADING” (THE ROYAL INSTITUTION FOR THE ADVANCEMENT OF …, priority 2020, published 2023).

Experiments:
[1] = ELISA on L605 CoCr substrates modified with peptides and antibodies; conditions: dark, ambient conditions, covalent peptide grafting vs adsorption
Experimental: (A) Without S-SMPB, peptides adsorb onto L605 which can change antibody orientation on surfaces. (B) 12-well plate with CoCr samples at the end of the ELISA. For custom ELISAs, RGD-TAMRA was detected using anti Rhodamine followed by HRP-labelled secondary antibodies. Anti CD309 was detected using an HRP-labelled F(ab′)2 secondary antibody on a separate set of samples. HRP activity was quantified by measuring A450 of supernatant collected after 30 min incubation with TMB substrate+addition of stop solution. […] N=3 L605 samples except G-I (N=9 images).

HUVEC cells = assay: HUVEC seeding on Protein G / anti-CD144 / RGD-TAMRA polystyrene well plate; format: cell-based, human; conditions: 3 h shaker incubation; for HUVEC attachment to the surface: serum free medium
Experimental: A 6 well plate was seeded with the following conditions in each well (W1-W6):
The functionalized surface was rinsed with phosphate buffer saline (PBS) and […]. HUVEC cells were used and were seeded in each well in serum free medium at a concentration of 19,000 cells/mL. The plate was incubated for 3 hours on an incubation shaker then imaged under the microscope. The plate were left to incubate for another 21 h (total 24 h) at 37° C. 5% CO2 and imaged again.

ECFCs = assay: Surface endothelialization of functionalized CoCr vascular stents in a perfusion model; format: cell-based, human; conditions: flow
Text: (A) Representative fluorescence images of ECFCs on the surface of modified stents (after plasma amination) and an unmodified control after 2 and half hours of circulating ECFCs over the stents in a perfusion model at 1 dyn/cm^2 wall shear stress. ECFCs were stained for F-actin (red) and nuclei (blue). Phase contrast images show the corresponding stent structure. Flow direction was from right to left. (B) Quantification of cell adhesion parameters from the fluorescence images. *P<0.05 and **P<0.01 with N=3 experimental replicas from different ECFC donors.
As encompassed herein, the modifications can be applied to different aminated substrates—as shown on polystyrene (FIGS. 4-13) and on cobalt-chromium (CoCr) (FIGS. 16-18). The modifications can be applied to different geometries while retaining the benefits observed on flat substrates.

[2] = tested on: endothelial colony forming cells (ECFCs); assay: ECFC seeding on modified polystyrene surfaces under static conditions; format: cell-based, human; conditions: vs unmodified aminated polystyrene surfaces
Text: Cells were stained for F-actin (red) and DAPI (blue). Images were used to quantify cell number and surface area per cell. Unmodified=aminated polystyrene surfaces without further modifications. **p<0.01, *p<0.05 with N=3 experimental replicas.
To test whether the bifunctional surfaces can impart two significant effects on cells of interests, ECFCs derived from human peripheral blood were either seeded on the modified surfaces under static conditions or flown over the surfaces in a perfusion loop under 1 dyn/cm^2 wall shear stress. […] The two molecules were mixed together at the center point concentrations of the previously described surface model.

[3] = ELISA of functionalized CoCr surfaces after gamma-irradiation; format: physicochemical; conditions: two one-side t-test, 15% difference considered practically equivalent
Text: (A) Principle of the ELISA method used to detect immobilized antibodies via horseradish peroxidase (HRP) conjugated secondary antibodies. (B) ELISA method used to detect immobilized RGD-TAMRA peptides via primary anti rhodamine antibodies followed by HRP conjugated secondary antibodies.

Row | Substance | ELISA signal after 28d storage [1] | HUVEC attachment to the surface (HUVEC cells) | cell spreading on CoCr stents (ECFCs) | surface area of the ECFCs (cell spreading) [2] | surface area of the ECFCs (cell spreading) ([2]; listed as RGD peptides) | ELISA signal after gamma-irradiation [3] | HUVEC spreading (HUVEC cells)
1 | CGK(PEG3-TAMRA)GGRGDS-NH2 [RGD-TAMRA] | significantly higher | strongly attach | higher cell spreading | significantly higher than the controls | increase cell spreading | practically equivalent | –
2 | collagen | – | strongly attach | – | – | – | – | spread more
